Results reported in paper PMC8949525, “Essential Elements and Isoflavonoids in the Prevention of Prostate Cancer” (Nutrients, 2022).
Read-outs that look alike come from different tables or passages of the source.

Columns and labels:
[1] = test system: S. typhimurium TA1535/pSK1002; details: for decrease in 2AA genotoxicity: range over 2AA 5 mg/L and 1 mg/L
Method: (§1) The umu-test detects the induction of bacterial DNA-damage response, the SOS system, in the strain S. typhimurium TA1535/pSK1002. The test strain carries pSK1002 plasmid, which contains the fusion of umuC, encoding one of SOS response proteins, and lacZ genes. The expression of β-galactosidase protein is fully controlled by umuC gene.
(§2) In the present study, the umu-test was performed in the micro-plate format according to the ISO guideline. The β-galactosidase activity was determined by the degree of ONPG cleavage measured as sample absorbance at 420 nm. The extent of SOS system activation was presented as induction ratio (IR), calculated as the ratio of β-galactosidase activity in the presence of the tested compound(s) to that of negative control. […] The optical density at 600 nm was used to describe the bacteria growth. […] Both measurements were performed with Asys UVM340 Hightech microplate spectrophotometer.
The S9 fraction from rat liver was used for metabolic activation of the tested compounds and the model mutagen. […] The P450 cytochrome level in the isolate was evaluated and the aliquots were stored at −80 °C. The S9 reaction mix was prepared as described by Maron and Ames.
(§3) In order to the establish anti-genotoxic potential of tested compounds, their effects on the action of two model genotoxic agents, 4NQO without the metabolic activation with rat liver S9 fraction and 2AA with metabolic activation, were evaluated. […] Subsequently, the modulation of 4NQO and 2AA genotoxicity by the isoflavones, the elements and their mixtures in previously used concentrations was investigated.

[2] = test system: S. typhimurium TA1535/pSK1002; details: for G (growth ratio): −S9, NQO line = genotoxin alone; for anti-genotoxic activity against 4NQO (summary class): cells cover 4NQO […] and 0.05 mg/L, the single + corresponds to […] (Table 2)
Method: as §1, §2, §3

[3] = test system: LNCaP prostate cancer cells; experiment: LNCaP cell proliferation (bisbenzimide H 33258-DNA fluorescence); format: cell-based, human; details: isoflavone 10 μM, Zn 0.5, Se 0.03, Cu 0.5, Fe 1.5, Ca 40 μg/mL
Method: LNCaP cells (passage 12–18) were maintained in DMEM medium supplemented with 10% (v/v) FBS, sodium pyruvate (1 mM), penicillin (100 U/mL) and streptomycin (100 μg/mL) at 37 °C in 5% CO2 humidified atmosphere.
The final concentration of DMSO was 0.05%. It must be noted that DMEM contains 1.8 mM of calcium. […] The cells were then gently washed with 0.9% saline and lysed by brief sonication in deionised water. The cell proliferation was quantified by measurement of bisbenzimide H 33,258–DNA complexes fluorescence on Synergy 4 microplate reader with Gen5 software (BioTek Instruments Inc., 100 Tigan St, Winooski, VT 05404, USA).

LNCaP cells = experiment: LNCaP viability/apoptosis, Hoechst 33258 fluorescent imaging; format: cell-based, human; details: 48 h, Hoechst 33258 stain; genistein, Se, Fe; camptothecin 2 µM positive control
Method: The images were recorded with the DS-Fi1 camera connected with Eclipse TS100F inverted microscope with Epi-Fluorescent attachment (DAPI filter) and NIS-Elements BR 2.3 software.

[4] = 2AA 1 mg/L, +S9, daidzein or equol 10 μM with or without mineral (Table 6), 2AA line = genotoxin alone
[5] = 2AA 1 mg/L, +S9, genistein 10 μM and/or mineral added (Table 5), 2AA line = genotoxin alone
[6] = 2AA 5 mg/L, +S9, daidzein or equol 10 μM with or without mineral (Table 6), 2AA line = genotoxin alone
[7] = 2AA 5 mg/L, +S9, genistein 10 μM and/or mineral added (Table 5), 2AA line = genotoxin alone
[8] = 4NQO 0.05 mg/L, genistein 10 μM and/or mineral added (Table 2)
[9] = 4NQO […], genistein 10 μM and/or mineral added (Table 2)
[10] = −S9, isoflavone 10 μM, minerals Zn 0.5, Se 0.03, Cu 0.5, Fe 1.5, Ca 40 μg/mL
[11] = 2AA 1 mg/L, +S9 (second symbol of the cell)
[12] = 2AA 5 mg/L, +S9 (first symbol of the cell)
[13] = inhibition of IR induced by 2AA 1 mg/L, +S9 (Table 5)
[14] = inhibition of IR induced by 2AA 5 mg/L, +S9 (Table 5)

Row | Structure (SMILES) | G (growth ratio) [1, 5] | G (growth ratio) [1, 7] | G (growth ratio) [2, 8] | G (growth ratio) [2, 9] | anti-genotoxic activity against 4NQO (summary class) [2] | LNCaP proliferation, % of control ([3]; 48 h incubation) [%] | G (growth ratio) [1, 10] | anti-genotoxic activity against 2AA (summary class) [1, 11] | anti-genotoxic activity against 2AA (summary class) [1, 12] | %Anti-Genotox. [1, 13] [%] | %Anti-Genotox. [1, 14] [%] | decrease in 2AA genotoxicity ([1]; +S9) | apoptosis / morphology of LNCaP cells (LNCaP cells) | LNCaP proliferation, % of control ([3]; 24 h incubation) [%] | further results
1 | Nc1ccc2cc3ccccc3cc2c1 [2AA, 2-aminoanthracene, reference compound] | 1.00 ± 0.07 | 1.02 ± 0.08 |  |  |  |  |  |  |  |  |  |  |  |  | G (growth ratio) [1, 4]: 0.92 ± 0.10; IR (induction ratio) [1, 4]: 2.37 ± 0.48; IR (induction ratio) [1, 5]: 2.00 ± 0.53; G (growth ratio) [1, 6]: 0.86 ± 0.09; IR (induction ratio) [1, 6]: 2.91 ± 0.54; IR (induction ratio) [1, 7]: 2.17 ± 0.39
2 | [Ca+2].[Cl-].[Cl-] [Ca, calcium chloride] |  | 1.19 ± 0.13 | 1.13 ± 0.08 | 1.11 ± 0.05 | + (anti-genotoxicty of used compound(s) ≤ 20%) | 80 ± 9 | 1.11 ± 0.09 |  |  |  |  |  |  |  | 
3 | O=S(=O)([O-])[O-].[Cu+2] [Cu, copper(II)/cupric sulphate] | 1.11 ± 0.12 |  | 0.98 ± 0.10 | 1.00 ± 0.12 |  | 80 ± 14 |  | ++ ++ (anti-genotoxicty of used compound(s) 21–40%) | ++ ++ (anti-genotoxicty of used compound(s) 21–40%) | 33 | 26 | 26–33% |  |  | 
4 | O=S(=O)([O-])[O-].[Fe+2] [Fe, iron(II) sulphate] | 1.10 ± 0.06 |  | 1.10 ± 0.10 |  | + (anti-genotoxicty of used compound(s) ≤ 20%) |  |  | ++ (anti-genotoxicty of used compound(s) 21–40%) | + (anti-genotoxicty of used compound(s) ≤ 20%) | 21 | 14 | 14–21% | did not induce apoptosis |  | G (growth ratio) ([1]; +S9, isoflavone 10 μM, minerals Zn 0.5, Se 0.03, Cu 0.5, Fe 1.5, Ca 40 μg/mL): 0.98 ± 0.10
5 | O=[Se](=O)([O-])[O-].[Na+].[Na+] [Se, sodium selenate] | 1.18 ± 0.10 | 1.17 ± 0.12 | 1.10 ± 0.09 | 1.11 ± 0.05 |  | 84 ± 11 | 1.14 ± 0.11 |  |  |  |  |  | did not induce apoptosis |  | 
6 | O=S(=O)([O-])[O-].[Zn+2] [Zn, Zinc sulphate] |  |  |  |  |  | 82 ± 10 |  |  |  |  |  |  |  |  | 
7 | CC[C@@]1(O)C(=O)OCc2c1cc1n(c2=O)Cc2cc3ccccc3nc2-1 [camptothecin, reference compound] |  |  |  |  |  |  |  |  |  |  |  |  | condensed chromatin or apoptotic nuclei |  | 
8 | O=c1c(-c2ccc(O)cc2)coc2cc(O)ccc12 [dai, daidzein] |  |  |  |  |  | 70 ± 7 |  |  |  |  |  |  |  | 84 ± 10 | 
9 | Oc1ccc([C@H]2COc3cc(O)ccc3C2)cc1 [eq, equol] |  |  |  |  |  | 60 ± 9 | 1.18 ± 0.33 | + (anti-genotoxicty of used compound(s) ≤ 20%) | ++ (anti-genotoxicty of used compound(s) 21–40%) |  |  | 29–34% |  | 81 ± 9 | G (growth ratio) ([2]; 4NQO […], daidzein or equol 10 μM with or without mineral (Table 3)): 0.97 ± 0.26; G (growth ratio) [1, 4]: 0.99 ± 0.11; %Anti-Genotox. ([1]; inhibition of IR induced by 2AA 1 mg/L, +S9 (Table 6)): 34%; %Anti-Genotox. ([1]; inhibition of IR induced by 2AA 5 mg/L, +S9 (Table 6)): 29%
10 | O=c1c(-c2ccc(O)cc2)coc2cc(O)cc(O)c12 [gen, genistein] |  | 1.21 ± 0.17 |  | 1.12 ± 0.24 | + (anti-genotoxicty of used compound(s) ≤ 20%) | 55 ± 9 | 1.28 ± 0.35 | ++ (anti-genotoxicty of used compound(s) 21–40%) | + (anti-genotoxicty of used compound(s) ≤ 20%) | 32 | 17 | 17–32% | did not induce apoptosis | 72 ± 9 | 
